# Reference: patent publication US20030008922A1, “Multiple drug resistance reversal agent” (priority 2002, published 2003)
# pKi: −log10 of the molar value.
# How the values were obtained:
# Pgp [1] = target: T1, Pgp (Homo sapiens, UniProt P08183); assay: Pgp ATPase activity (ATP-hydrolysis); assay type: biochemical; conditions: values >1 represent stimulation, values <1 represent inhibition
# Protocol: (§1) Pgp ATPase stimulation activity was determined along with displacement of the prazosin analog, iodoarylazidoprazosin (^125IAAP). Ambudkar, S. V. Methods Enzymol 1998, 292: 504-514; Dey, S. et al. Methods Enzymol. 1998, 292: 318.
# (§2) The effect of the homodimers of the present invention on ATPase activity and IAAP binding to Pgp are very potent. ATPase stimulation reaches a maximum at low concentration (1 μM) and steadily drops off as the concentration is increased (not shown). In contrast with the other homodimers, the X=5 compound slowly achieves maximum stimulation up to 50 μM and this level is maintained as the concentration increases. The other dimers are similar to the monomeric compounds where maximum stimulation is achieved and rapidly drops off as concentration increases. More surprising are the Pgp displacement of photoaffinity labeled substrate analog by the heterodimers. For example, with the heterodimer where X=12 is shown to bind tightly at 1.7 μM.
# Pgp [2] = target: T1, Pgp; assay: Inhibition of 125IAAP binding to Pgp (photoaffinity substrate displacement)
# Protocol: as §1, §2
# T1 sequence (P08183 whole entry): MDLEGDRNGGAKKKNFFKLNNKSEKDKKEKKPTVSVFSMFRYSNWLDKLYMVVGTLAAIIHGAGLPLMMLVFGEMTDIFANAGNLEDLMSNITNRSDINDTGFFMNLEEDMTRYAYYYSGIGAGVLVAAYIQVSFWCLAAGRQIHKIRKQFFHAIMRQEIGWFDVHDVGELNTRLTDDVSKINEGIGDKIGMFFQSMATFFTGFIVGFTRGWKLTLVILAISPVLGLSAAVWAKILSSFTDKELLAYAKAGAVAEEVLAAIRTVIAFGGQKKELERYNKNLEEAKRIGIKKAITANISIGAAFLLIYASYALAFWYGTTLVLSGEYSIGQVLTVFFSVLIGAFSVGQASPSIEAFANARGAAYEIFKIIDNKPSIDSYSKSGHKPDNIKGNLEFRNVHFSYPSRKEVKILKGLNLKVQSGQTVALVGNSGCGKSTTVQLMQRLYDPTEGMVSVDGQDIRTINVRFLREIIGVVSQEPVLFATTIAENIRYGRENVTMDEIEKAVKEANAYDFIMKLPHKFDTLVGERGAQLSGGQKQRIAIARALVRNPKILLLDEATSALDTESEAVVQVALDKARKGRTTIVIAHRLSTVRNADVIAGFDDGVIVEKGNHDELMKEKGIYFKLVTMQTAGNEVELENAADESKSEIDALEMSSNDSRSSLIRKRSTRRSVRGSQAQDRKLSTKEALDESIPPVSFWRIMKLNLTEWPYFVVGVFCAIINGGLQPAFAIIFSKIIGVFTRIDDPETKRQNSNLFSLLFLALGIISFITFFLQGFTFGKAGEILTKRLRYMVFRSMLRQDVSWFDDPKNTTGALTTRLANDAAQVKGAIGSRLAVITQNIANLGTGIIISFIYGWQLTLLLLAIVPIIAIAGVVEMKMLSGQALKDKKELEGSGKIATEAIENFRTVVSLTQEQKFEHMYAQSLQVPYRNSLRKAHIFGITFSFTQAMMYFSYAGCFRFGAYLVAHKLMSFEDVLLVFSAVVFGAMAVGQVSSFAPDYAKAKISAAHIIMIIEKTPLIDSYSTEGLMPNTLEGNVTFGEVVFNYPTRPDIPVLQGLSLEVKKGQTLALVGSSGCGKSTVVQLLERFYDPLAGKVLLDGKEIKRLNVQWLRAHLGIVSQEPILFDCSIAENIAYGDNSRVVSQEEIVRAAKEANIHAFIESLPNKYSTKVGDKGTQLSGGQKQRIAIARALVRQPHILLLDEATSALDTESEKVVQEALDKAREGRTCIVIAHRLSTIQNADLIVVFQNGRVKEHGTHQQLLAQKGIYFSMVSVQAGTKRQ
structure (smiles),measurement,setting,value
CC(=CCCC#CC=CC(C)C(O)C(C)=CCCc1ccc2ccccc2c1)C(=O)NCCOCCOCCOCCOCCOCCO (centres unmarked) [compound 16],ATPase activity,Pgp [1],0.34 fraction of control
same,pKi,Pgp [2],5.12
